The results in this text go back to patent publication US12642788B2, “Pharmaceutical composition comprising benzimidazole derivative compound” (HK INNO.N CORPORATION, priority 2020, dated 2026).

What all share (format): in vivo, C57BL/6 male mice
Experiment [1] relates to colitis induced by dextran sodium sulfate (DSS). Nature of the experiment: Mouse model of colitis using DSS (body weight, length of large intestine, DAI). The settings on record: 30 mg/kg/day oral twice a day; for decrease in body weight: vs day 0 = 100%. As to the method:
Mouse Model of Colitis Using DSS C57BL/6 male mice, which were eight weeks old (24.0 g), were purchased from Orient Bio, acclimated to the laboratory environment (temperature of 21±2° C. and humidity of 50±10%) for one week with a full access to feed and water, and used in an experiment. The mice were divided into a normal control group (Control, n=6), a group with induced colitis (DSS+Veh, n=8), a group dosed with tegoprazan (DSS+Tegoprazan, n=8), and a group dosed with a control drug (DSS+Rabeprazole, n=8), and the experiment was performed. To induce colitis, DSS (MPbio product, catalog No. 0216011080) was used. The group with induced colitis (DSS+Veh) was dosed with 2.0% DSS in drinking water for consecutive five days, was suspended from 2.0% DSS administration from the 5th day, and was orally dosed with 0.5% (w/v) methylcellulose aqueous solution twice a day for three days until the 8th day. The group dosed with tegoprazan (DSS+Tegoprazan) was orally dosed with tegoprazan (7-{[(4S)-5,7-difluoro-3,4-dihydro-2H-chromen-4-yl]oxy}-N,N,2-trimethyl-1H-benzi midazole-5-carboxamide), which was dissolved in 0.5% (w/v) methylcellulose aqueous solution, at a dose of 30 mg/kg/day twice a day for five days along with 2% DSS and drinking water. The group was suspended from 2.0% DSS administration from the 5th day, and was orally dosed with tegoprazan, which was dissolved in 0.5% (w/v) methylcellulose aqueous solution, twice a day for three days until the 8th day. The group dosed with the control drug (DSS+Rabeprazole) was dosed with DSS and rabeprazole in substantially the same manner as the group dosed with tegoprazan, except for using rabeprazole instead of tegoprazan. In the group dosed with tegoprazan and the group dosed with the control drug, the oral administration was performed twice a day by dividing the administration into morning/afternoon. The body weight of each mouse was measured with regard to the normal control group, the group with induced colitis, the group dosed with tegoprazan, and the group dosed with the control drug. The body weight of the mouse was measured every morning from the start day of experiment (day 0), in which DSS was not administered, until the 9th day, and the body weight of the mouse, which was measured on the start day of experiment (day 0) without the administration of DSS, was converted into 100%. On the 9th day after an initial administration of 2% DSS solution, the mouse was sacrificed and the colon was removed therefrom to measure the length of the removed large intestine. (In FIG. 2, * indicates P<0.05 and ** indicates P<0.01.) As DAI, a change in body weight, bloody stool and stool viscosity were measured every morning, and scored according to the following table 1.

In experiment [2] the test system is colonic tissues. Description: PAS staining analysis and damage to colonic tissues, DNBS model. As to the method:
(§1) PAS staining analysis was performed on colonic tissues obtained from each of the animal models in which DSS and DNBS had been used, the goblet cell loss was scored according to the following table 2, and the degree of tissue damage was scored according to the following table 3. [table] [table]

Experiment [3] relates to colonic tissues. Nature of the experiment: PAS staining analysis and damage to colonic tissues, DSS model. Conditions: for scored degree of damage to colonic tissues: score per Table 3. Here is the method: as §1
Experiment [4] deals with colitis induced by 2,4-dinitrobenzenesulfonic acid hydrate (DNBS). Nature of the experiment: Mouse model of colitis using DNBS (body weight, length of large intestine, DAI, survival rate). The settings on record: for body weight: day 0 = 100%; for survival rate: as of day 5. As to the method: Mouse Model of Colitis Using DNBS
C57BL/6 male mice, which were eight weeks old (24.0 g), were purchased from Orient Bio, acclimated to the laboratory environment (temperature of 21±2° C. and humidity of 50±10%) for one week with a full access to feed and water, and used in an experiment.
The mice were divided into a normal control group (Control, n=6), a group with induced colitis (DNBS+Vehicle, n=8), a group dosed with tegoprazan (DNBS+Tegoprazan, n=8), and a group dosed with a control drug (DNBS+Rabeprazole, n=8), and the experiment was performed.
To induce colitis, DNBS (Sigma-Aldrich product, catalog No. 556971) was used. The mice were fasted from one day before being dosed with DNBS to remove the fecal waste in the intestine. The normal control group was dosed with 50% ethanol only by rectal route.
The administration of DNBS was done by dissolving 5 mg of DNBS in 50% ethanol and administering it by rectal route.
In the group dosed with tegoprazan (DNBS+Tegoprazan), the DNBS-administered mouse was orally dosed with tegoprazan (7-{[(4S)-5,7-Difluoro-3,4-dihydro-2H-chromen-4-yl]oxy}-N,N,2-trimethyl-1H-benzi midazole-5-carboxamide), which had been dissolved in 0.5% (w/v) methylcellulose aqueous solution, at a dose of 30 mg/kg/day twice a day for five days.
In the group dosed with the control drug (DNBS+Rabeprazole), the DNBS-administered mouse was dosed with rabeprazole in substantially the same manner as the group dosed with tegoprazan, except for using rabeprazole instead of tegoprazan.
In the group with induced colitis (DNBS+Vehicle), the DNBS-administered mouse was orally dosed with 0.5% (w/v) methylcellulose aqueous solution twice a day.
In the group dosed with tegoprazan, the group dosed with the control drug, and the group with induced colitis, the oral administration was performed twice a day by dividing the administration into morning/afternoon. After being dosed for four days, the mouse was sacrificed on the 5th day.
The body weight of each mouse in the normal control group, the group with induced colitis, the group dosed with tegoprazan, and the group dosed with the control drug was measured. The body weight of the mouse was measured every morning from the start day of experiment before administration of DNBS (day 0) to the 5th day, and the body weight of the mouse before administration of DNBS on day 0 was converted into 100%. In the case of the mouse sacrificed before the end of experiment, the weight of the mouse measured the day before sacrifice was included in the data as of the last day of experiment and converted (refer to FIG. 15 for survival period and survival rate).
On the 5th day after an initial administration of DNBS, the mouse was sacrificed, and the colon was removed therefrom to measure the length of the removed large intestine. (In FIG. 10, * indicates P<0.05.)
As DAI, a change in body weight, bloody stool and stool viscosity were measured every morning, and scored according to the following table 1.
(In relation to the animal model of colitis using DNBS, in the case of the mouse sacrificed before the end of experiment, the DAI score of the mouse measured the day before sacrifice was included in the data as of the last day of experiment and converted (refer to FIG. 15 for survival period and survival rate).)

The subject of experiment [5] is KCNJ1 mRNA. Description: KCNJ1 mRNA expression in colonic tissues, real-time PCR, DSS model. Conditions: 30 mg/kg/day oral. Here is the method: In the mouse model of colitis using DSS, the difference in expression of KCNJ1 mRNA was measured by using a real-time PCR. (In FIG. 4, ** indicates P<0.01.)
On the technique in general: Quantitative PCR measures a nucleic acid by following its amplification.

Experiment [6] relates to IL-17. Nature of the experiment: IL-17 mRNA expression in colonic tissues, real-time PCR, DNBS model. The settings on record: compared to the group with induced colitis. Here is the method: In the mouse model of colitis using DNBS, the level of mRNA expression of IL-17 was evaluated by using a real-time PCR. (In FIG. 12, ** indicates P<0.01 and *** indicates P<0.001.)

In experiment [7] the test system is IL-6. Description: IL-6 mRNA expression in colonic tissues, DNBS model. Conditions: compared to the group with induced colitis.
The test system of experiment [8] is tight junction (intestinal permeability). Description: FITC-dextran permeability, DSS model. Conditions: FITC value in serum 4 hours after oral FITC-dextran. As to the method: Four hours before the mouse was sacrificed in the mouse model of colitis using DSS, the mouse was orally dosed with FITC-dextran (80 mg/mL), after which cardiac puncture was performed to measure an FITC value in serum. Permeability (%) was converted based on the normal control group.

Experiment [9] has as its system IL-6. Description: IL-6 mRNA expression in colonic tissues, real-time PCR, DSS model. Conditions: compared to the group with induced colitis. Here is the method: (§2) In the mouse model of colitis using DSS, the level of mRNA expression of IL-1p, IL-6, Muc 2 and TNF-α was evaluated by using a real-time PCR. (In FIG. 5, * indicates P<0.05, ** indicates P<0.01, and *** indicates P<0.001.)

Experiment [10] relates to Muc2. Nature of the experiment: Muc2 mRNA expression in colonic tissues, real-time PCR, DSS model. Here is the method: as §2
Experiment [11] relates to TNF-α. Nature of the experiment: TNF-α mRNA expression in colonic tissues, DNBS model. The settings on record: compared to the group with induced colitis.
The subject of experiment [12] is TNF-α. Description: TNF-α mRNA expression in colonic tissues, real-time PCR, DSS model. The settings on record: compared to the group with induced colitis. Here is the method:
as §2

In experiment [13] the test system is IL-1β. Nature of the experiment: IL-1β production/expression in colonic tissues, DSS model. As to the method: as §2
The mark [14] stands for this setting: 5th day, 30 mg/kg/day oral twice a day.

Consider `COCCCOc1ccnc(C[S+]([O-])c2nc3ccccc3[nH]2)c1C` (centres unmarked) [control drug, rabeprazole, reference compound], for which the “decrease in body weight” value in experiment [1] (9th day) is recorded as “about 23%”. In addition, the “scored degree of damage to colonic tissues” value was determined as 7.0±1.4 point in [2] (score per Table 3) and 8.12±1.8 point in [3]. In addition, the body weight in experiment [4] (setting [14]) is listed as 89%. In addition, the survival rate in [4] came out at 75%.
As for `Cc1nc2cc(C(=O)N(C)C)cc(O[C@H]3CCOc4cc(F)cc(F)c43)c2[nH]1` [tegoprazan, (S)-4-(5,7-difluorochroman-4-yloxy)-N,N,2-trimethyl-1H-benzo[d]imidazole-6-carbox amide], the “expression of KCNJ1 mRNA” value in experiment [5] is “significant decrease in expression of KCNJ1 mRNA”. For the same compound, the “mRNA expression of IL-17” value in experiment [6] was “significant decrease”. The “mRNA expression of IL-6” value in experiment [7] is “tended to decrease”; in experiment [9], “statistically significant decrease”. Also, the “length of the large intestine” value is on record as “a rather increase in the length of the large intestine or no difference from the normal control group” in experiment [1] (9th day) and “no difference in the length of the large intestine from the normal control group” in experiment [4] (setting [14]). Besides, the “decrease in body weight” value in experiment [1] (9th day) is “about 14%”. The “disease activity index (DAI) score” value in [1] (to 9th day) is reported as “took a turn for the better compared to the group with induced colitis”; in [4] (to 5th day, 30 mg/kg/day oral twice a day), “DAI drastically decreased from the 4th day”. In addition, the “crypt damage (PAS staining)” value in experiment [2] (colonic tissues) and in [3] (colonic tissues) was “partially intact crypt was observed” in each case. Also, the “goblet cells (PAS staining)” value in experiment [2] (colonic tissues) is listed as “presence of mucin-producing goblet cells was confirmed”; in experiment [3] (colonic tissues) it was “goblet cells were also present compared to the group with induced colitis”. For the same compound, the “scored degree of damage to colonic tissues” value in experiment [3] is listed as 5.38±1.8 point. Further, the “damage to the tight junction (FITC-dextran permeability)” value in [8] was “significant decrease in the damage to the tight junction”. Moreover, the “mRNA expression of Muc2” value in experiment [10] was “statistically significant increase”. In addition, the “mRNA expression of TNF-α” value in [11] is “tended to decrease”; in experiment [12], “statistically significant decrease”. In experiment [13], the “production/expression of IL-1β” value is given as “inhibits the production/expression”. For the same compound, the body weight entry in experiment [4] (setting [14]) was “about 105%”. In addition, the survival rate entry in experiment [4] was “all the subjects in the group dosed with tegoprazan survived until the last day of experiment”.
